Data set [1] has as its target Mothers against decapentaplegic homolog 3 (Homo sapiens, UniProt P84022). Nature of the data set: blockers of Smad3 complex formation in lysate – cell lysate, secondary confirmation, chemiluminescent ELISA, HEK293 lysate, dose response (AID 1058). It is filed as functional.
The target of data set [2] is T1, Alkaline phosphatase, tissue-nonspecific isozyme (Homo sapiens, UniProt P05186).
T1 sequence (P05186 whole entry): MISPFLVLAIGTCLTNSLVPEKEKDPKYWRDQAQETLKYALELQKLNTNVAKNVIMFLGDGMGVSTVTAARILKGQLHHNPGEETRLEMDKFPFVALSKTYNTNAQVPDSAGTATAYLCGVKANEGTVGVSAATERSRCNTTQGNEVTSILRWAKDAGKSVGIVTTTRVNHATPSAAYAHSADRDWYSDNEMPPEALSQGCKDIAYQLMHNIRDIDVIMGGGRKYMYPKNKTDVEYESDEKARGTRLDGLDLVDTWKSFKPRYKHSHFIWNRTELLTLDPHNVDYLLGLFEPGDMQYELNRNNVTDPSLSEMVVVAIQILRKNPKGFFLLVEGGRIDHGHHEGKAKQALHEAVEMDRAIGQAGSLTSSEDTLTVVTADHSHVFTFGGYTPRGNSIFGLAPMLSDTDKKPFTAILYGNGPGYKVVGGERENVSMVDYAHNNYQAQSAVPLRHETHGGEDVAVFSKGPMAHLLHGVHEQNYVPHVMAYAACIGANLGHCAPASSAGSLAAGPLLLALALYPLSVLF

The target in a further data set is Cytochrome P450 2D6 (Homo sapiens, UniProt P10635).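 Further: CYP2D6 member of a cytochrome P450 panel assay.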
A further data set deals with Cytochrome P450 2C9 (Homo sapiens, UniProt P11712).
The subject of another data set is Streptococcus. Briefly: Luminescence Microorganism-Based Dose Response Follow up to Identify Compounds Cytotoxic to Streptococcus. [Related pubchem assays: 1677 (Project Summary), 1915, 1914, 1902 (Retest at Dose), 1900 (Counter Screen), 1662 (Primary HTS)]. It is filed as functional, organism-based.
Data set [3] can be described thus: alpha-synuclein stem-loop translation blockers – luminescence, H4 neuroglioblastoma cells, dose confirmation, confirmation (AID 2454).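 Further: H4 neuroglioblastoma cells carrying an alpha-synuclein 5'UTR luciferase reporter; potency for inhibition of the luciferase signal.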 The data set is classed as functional, cell-based.
The nature of data set [4]: reduction of Shn3 3'UTR-driven luciferase in osteoblasts – cell-based, Clone20 osteoblasts, firefly luciferase, cherry-picked, dose response (AID 624132).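 Further: firefly luciferase luminescence from reporter carrying the Shn3 3'UTR in osteoblasts.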 The data set is classed as functional.
The target of data set [5] is Luciferin 4-monooxygenase (Photuris pensylvanica, UniProt Q27757). Nature of the data set: inhibition of Cell Titer Glo luciferase signal – biochemical, luminescence, cherry-picks, counter-screen for HSF-1 reporter inhibitor project, dose response (AID 588847).
Data set [6] in a line: EF1alpha-driven Renilla reporter with control 3'UTR suppression – Clone20-Shn3RL cells, dual-Glo, cherry-pick, set 2, counter-screen for Shn3 3'UTR targeting project, dose response (AID 720724). The following applies: Dual-Go Shn3RL. It is filed as functional, cell-based.
Data set [7] is described as follows: alpha-synuclein stem-loop luciferase translation blockers – H4 neuroglioma cells, luminescence, confirmation (AID 1988). It is filed as functional, cell-based.
The nature of another data set: cells. It is filed as functional, cell-based.
A short description of data set [8]: HEK-293T viability loss, compound-treated – cell-based, uHTS hits, cytotoxicity control for B/T-cell NF-kB inhibitor project, dose response (AID 489019).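 Further: IC50 reflects cytotoxicity as loss of cell viability.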 It is filed as functional.
The nature of data set [9]: Shn3 3'UTR reporter signal decrease – cell-based, Clone20 osteoblasts, firefly luciferase, cherry-pick, set 2, Schnurri-3 inhibitor project, dose response (AID 720490).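 Further: actives lower the luminescence signal as inhibitors.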 The data set is classed as functional.
The nature of data set [10]: blockers of bursicon-stimulated LGR2 cAMP reporter – cell-based, HEK293, CRE-luciferase reporter, cherry pick, set 2, dose response (AID 743343).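 Further: transfected cells were stimulated with diluted bursicon conditioned medium after compound addition.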 The data set is classed as functional.
Data set [11] can be described thus: HIV-1 AD8 envelope cell-cell fusion blockers – cherry-pick, dose response (AID 652062).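 Further: luciferase signal from cell-cell fusion driven by HIV-1 clade B AD8 Env; potency is for inhibitors of fusion seen as a drop in luminescence.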 It is filed as functional, cell-based.
The next data set relates to Jurkat. Briefly: blockers of NF-kB activation in T cells – Jurkat, luciferase reporter, luminescence, B- and T-cell, dose response (AID 489004).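 Further: NF-kB luciferase reporter Jurkat cells stimulated with PMA plus ionomycin.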 The data set is classed as functional, cell-based. The following applies: Homo sapiens.
For data set [12], the target named is T2, Heat shock factor protein 1 (Mus musculus, UniProt P38532).
T2 sequence (P38532 whole entry): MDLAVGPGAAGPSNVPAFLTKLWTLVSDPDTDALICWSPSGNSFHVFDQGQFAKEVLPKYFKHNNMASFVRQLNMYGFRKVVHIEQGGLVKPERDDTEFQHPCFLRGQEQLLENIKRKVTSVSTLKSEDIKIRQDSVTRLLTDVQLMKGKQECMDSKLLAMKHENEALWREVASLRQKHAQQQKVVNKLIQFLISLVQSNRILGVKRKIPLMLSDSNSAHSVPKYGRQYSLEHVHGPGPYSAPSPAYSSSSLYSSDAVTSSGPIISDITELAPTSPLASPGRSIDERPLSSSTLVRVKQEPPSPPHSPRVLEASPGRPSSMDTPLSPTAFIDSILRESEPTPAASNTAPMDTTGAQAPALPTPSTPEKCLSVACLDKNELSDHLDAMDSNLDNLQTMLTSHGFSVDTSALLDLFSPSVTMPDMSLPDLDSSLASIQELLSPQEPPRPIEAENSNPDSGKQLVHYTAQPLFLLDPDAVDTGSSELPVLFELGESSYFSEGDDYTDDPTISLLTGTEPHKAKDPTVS
Briefly: decrease of HSF1-responsive luciferase luminescence – cell-based, NIH3T3, dose retest, confirmation (AID 2382).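 Further: NIH3T3 fibroblasts with HSF1-driven luciferase reporter stressed by proteasome inhibitor MG132; luminescence from HSF1-driven luciferase expression after 8 hours of MG132 stress.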 It is filed as functional.

Data set [13] in a line: blockers of HIV-1 envelope-mediated cell-cell fusion – cherry-pick, dose response (AID 652057). It is filed as functional, cell-based.
A short description of data set [14]: off-target signal loss in HeLa-CEM21 co-culture – HeLa F-luc CTL cells, cherry-picked, counter-screen for HIV-1 Env fusion inhibitor project, dose response (AID 652040).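 Further: potency for signal decrease marking cytotoxic or nonspecific inhibition.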 The data set is classed as functional, cell-based.
A short description of data set [15]: luciferase reporter signal suppression in cells – H4 neuroglioma cells, luminescence, dose response (AID 1990). It is filed as functional, cell-based.
Data set [16] in a line: blockade of melanocortin 4 receptor signaling – cell-based, plate reader, cherry pick, counter-screen for LGR2 antagonist project, dose response (AID 743444).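 Further: transfected HEK 293 cells stimulated with alpha-MSH peptide; potency of inhibitors of the alpha-MSH evoked signal.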 It is filed as functional.
Data set [17] can be described thus: luciferase reporter signal reduction – luminescence, H4-C neuroglioblastoma cells, dose response (AID 2458).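 Further: H4 neuroglioblastoma cells stably carrying a luciferase reporter gene fusion.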 It is filed as functional, cell-based.
Data set [18] can be described thus: Luminescence Cell-Based Dose Response HTS to Identify Inhibitors of 5'UTR Stem-Loop Driven Prion Protein mRNA Translation in H4 Neuroglioblastoma Cells. [Related pubchem assays: 1827 (Project Summary), 1813 (Primary HTS)]. It is filed as functional.
Data set [19] deals with Heat shock protein HSP 90-alpha (Homo sapiens, UniProt P07900). Nature of the data set: Luminescence-based dose response biochemical high throughput screening assay for inhibitors of the Heat Shock Protein 90 (HSP90). [Related pubchem assays: 1831 (Summary AID.), 1846 (Confirmation screen.), 1789 (Primary screen.)].
Data set [20] in a line: blockers of HIV-1 ZM109 envelope-driven cell-cell fusion – HeLa effector, CEM target cells, luciferase, cherry-pick, dose response (AID 652058).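 Further: luciferase signal from HIV-1 Env mediated cell-cell fusion of effector and target cells.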 The data set is classed as functional, cell-based.

Active and inactive are the calls of the source.

Consider 4 compounds from ChEMBL document CHEMBL1201862, “PubChem BioAssay data set” (2004).

Chain of Cytochrome P450 2D6 (P10635 whole entry): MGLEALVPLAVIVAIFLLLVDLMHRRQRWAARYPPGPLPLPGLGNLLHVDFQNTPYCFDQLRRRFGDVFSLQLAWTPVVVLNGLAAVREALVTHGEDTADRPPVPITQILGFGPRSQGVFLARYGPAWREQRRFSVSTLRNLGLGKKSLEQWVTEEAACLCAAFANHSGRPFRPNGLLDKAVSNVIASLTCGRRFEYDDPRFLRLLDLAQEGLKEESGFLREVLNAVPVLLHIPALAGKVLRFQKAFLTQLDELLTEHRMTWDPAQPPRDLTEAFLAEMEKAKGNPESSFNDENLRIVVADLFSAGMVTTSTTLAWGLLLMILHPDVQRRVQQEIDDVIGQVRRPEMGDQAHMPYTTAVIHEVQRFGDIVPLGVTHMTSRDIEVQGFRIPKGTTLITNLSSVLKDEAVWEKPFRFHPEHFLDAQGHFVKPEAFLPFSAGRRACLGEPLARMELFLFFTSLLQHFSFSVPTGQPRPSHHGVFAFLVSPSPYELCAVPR
Chain of Mothers against decapentaplegic homolog 3 (P84022 whole entry): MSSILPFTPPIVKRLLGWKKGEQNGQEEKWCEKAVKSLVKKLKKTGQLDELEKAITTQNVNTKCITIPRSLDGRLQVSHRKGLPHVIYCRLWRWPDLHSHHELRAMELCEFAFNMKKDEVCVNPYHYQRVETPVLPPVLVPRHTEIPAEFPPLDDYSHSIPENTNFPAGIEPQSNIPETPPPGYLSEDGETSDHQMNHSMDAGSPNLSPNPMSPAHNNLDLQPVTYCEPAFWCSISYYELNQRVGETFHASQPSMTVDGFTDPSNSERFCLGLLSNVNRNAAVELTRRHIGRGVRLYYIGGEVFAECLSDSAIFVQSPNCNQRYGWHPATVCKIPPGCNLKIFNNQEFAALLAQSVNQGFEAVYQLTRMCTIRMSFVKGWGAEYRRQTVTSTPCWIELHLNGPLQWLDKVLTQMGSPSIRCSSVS
Chain of Cytochrome P450 2C9 (P11712 whole entry): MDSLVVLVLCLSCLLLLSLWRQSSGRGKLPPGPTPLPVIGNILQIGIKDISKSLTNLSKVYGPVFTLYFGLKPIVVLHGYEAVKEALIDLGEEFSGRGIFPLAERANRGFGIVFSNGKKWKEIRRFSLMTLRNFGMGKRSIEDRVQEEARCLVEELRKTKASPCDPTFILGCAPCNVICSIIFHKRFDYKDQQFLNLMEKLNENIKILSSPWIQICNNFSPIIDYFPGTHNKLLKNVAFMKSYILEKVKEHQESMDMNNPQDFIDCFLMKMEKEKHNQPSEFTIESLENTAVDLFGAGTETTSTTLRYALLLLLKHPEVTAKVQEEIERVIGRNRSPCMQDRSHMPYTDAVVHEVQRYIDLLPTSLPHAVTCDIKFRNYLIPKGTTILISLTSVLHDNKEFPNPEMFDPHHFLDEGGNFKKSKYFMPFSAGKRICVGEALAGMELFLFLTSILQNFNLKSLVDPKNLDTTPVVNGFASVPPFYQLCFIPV
Chain of Luciferin 4-monooxygenase (Q27757 whole entry): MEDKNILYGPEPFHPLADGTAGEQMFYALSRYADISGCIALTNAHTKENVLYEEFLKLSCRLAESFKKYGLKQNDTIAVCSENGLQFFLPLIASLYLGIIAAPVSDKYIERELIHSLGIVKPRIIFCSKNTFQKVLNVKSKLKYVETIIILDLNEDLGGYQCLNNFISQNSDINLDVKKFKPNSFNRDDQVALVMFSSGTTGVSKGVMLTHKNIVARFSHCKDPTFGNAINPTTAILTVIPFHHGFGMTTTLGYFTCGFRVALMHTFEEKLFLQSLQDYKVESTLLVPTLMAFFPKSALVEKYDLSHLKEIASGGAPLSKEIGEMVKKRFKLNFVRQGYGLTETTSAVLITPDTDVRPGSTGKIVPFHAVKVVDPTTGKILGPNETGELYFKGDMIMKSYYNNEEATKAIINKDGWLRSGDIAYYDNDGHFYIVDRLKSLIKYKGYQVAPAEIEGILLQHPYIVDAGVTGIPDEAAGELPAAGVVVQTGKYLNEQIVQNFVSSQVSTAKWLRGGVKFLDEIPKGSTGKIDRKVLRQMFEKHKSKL

For `O=C(O)c1cc2cc(O)ccc2[nH]1`, in data set [1], the half-inhibitory concentration (IC50) is 1770 nM (not active).

Regarding `CCN=C(S)NNC(=O)CCn1c2ccccc2c2ccccc21`, the concentration giving a half-maximal response (EC50) in data set [2] is > 100000 nM (not active). Also, the AC50 on Cytochrome P450 2D6 is 14100 nM (inconclusive); at Cytochrome P450 2C9 it was “inconclusive”.

Turning to `COc1cccc(C(=O)n2c3ccccc3c3ccccc32)c1`, the EC50 in the data set with Streptococcus is > 500000 nM (not active).

As to `O=C(CN1C(=O)c2ccccc2S1(=O)=O)c1ccc2c(c1)OCCCO2`, the EC50 in data set [3] is 16 nM (active); in data set [7], < 100 nM (active); in the data set “cells” it was 21 nM (active); in data set [12], < 160 nM (active); in data set [15], < 100 nM (active); in data set [17], 15 nM (active). The concentration for a half-maximal effect (EC50) in data set [18] was < 100 nM (active). For the same compound, the AC50 is 262 nM (active) in data set [4]; > 52000 nM (inactive) in data set [5]; 50300 nM (active) in data set [6]; 631 nM (active) in [9]; < 68 nM (active) in data set [10]; < 260 nM (active) in [11]. For the same compound, the concentration at half-maximal activity (AC50) was < 260 nM (active) in [13], < 260 nM (active) in data set [14], 69.5 nM (active) in [16] and 725 nM (active) in [20]. For the same compound, the results for the IC50 (in [8]; in the data set with Jurkat; in data set [19]) were > 80000 nM (inactive), < 160 nM (active) and 816 nM (active), respectively.
